# Assay results taken from PubChem BioAssay AID1918947 (Molecular Pharmacology Branch, DTP, NCI, 2023).
# Values joined by “and” are separate entries in the source; they are usually repeats but may differ in a detail not shown here. Equal entries are not always repeated.
# Test system: A498 complex spheroid viability
# Assay: Anticancer human tumor A498 cell line growth inhibition;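 also: spheroids exposed to agents for seven days before readout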;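 as to viability, T/C: 100% = DMSO vehicle-treated spheroids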
# Conditions: for viability, T/C: stronger effect = lower value
# Summary of the method: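 Drug combinations with the LSD1 inhibitor iadademstat tested on tumor cells co-cultured as spheroids with endothelial cells and mesenchymal stem cells. Concentrations descended in half-log increments from clinical Cmax or 10 microM.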
# [1] = curve of first compound, second compound 0.1 µM
# [2] = curve of first compound, second compound 0.316 µM
# [3] = curve of first compound, second compound 1 µM
# [4] = curve of first compound, second compound 3.16 µM
# [5] = curve of first compound, second compound 10 µM
# [6] = second compound 0.1 µM, first compound 0.000949 µM
# [7] = second compound 0.1 µM, first compound 0.003 µM
# [8] = second compound 0.1 µM, first compound 0.00949 µM
# [9] = second compound 0.1 µM, first compound 0.03 µM
# [10] = second compound 0.1 µM, first compound 0.0949 µM
# [11] = second compound 0.1 µM, first compound 0.3 µM
# [12] = second compound 0.316 µM, first compound 0.000949 µM
# [13] = second compound 0.316 µM, first compound 0.003 µM
# [14] = second compound 0.316 µM, first compound 0.00949 µM
# [15] = second compound 0.316 µM, first compound 0.03 µM
# [16] = second compound 0.316 µM, first compound 0.0949 µM
# [17] = second compound 0.316 µM, first compound 0.3 µM
# [18] = second compound 1 µM, first compound 0.000949 µM
# [19] = second compound 1 µM, first compound 0.003 µM
# [20] = second compound 1 µM, first compound 0.00949 µM
# [21] = second compound 1 µM, first compound 0.03 µM
# [22] = second compound 1 µM, first compound 0.0949 µM
# [23] = second compound 1 µM, first compound 0.3 µM
# [24] = second compound 3.16 µM, first compound 0.000949 µM
# [25] = second compound 3.16 µM, first compound 0.003 µM
# [26] = second compound 3.16 µM, first compound 0.00949 µM
# [27] = second compound 3.16 µM, first compound 0.03 µM
# [28] = second compound 3.16 µM, first compound 0.0949 µM
# [29] = second compound 3.16 µM, first compound 0.3 µM
# [30] = second compound 10 µM, first compound 0.000949 µM
# [31] = second compound 10 µM, first compound 0.003 µM
# [32] = second compound 10 µM, first compound 0.00949 µM
# [33] = second compound 10 µM, first compound 0.03 µM
# [34] = second compound 10 µM, first compound 0.0949 µM
# [35] = second compound 10 µM, first compound 0.3 µM
Structure (SMILES),IC50 [1],IC50 [2],IC50 [3],IC50 [4],IC50 [5],"viability, T/C [8]","viability, T/C [9]","viability, T/C [10]","viability, T/C [11]","viability, T/C [14]","viability, T/C [15]","viability, T/C [16]","viability, T/C [17]","viability, T/C [20]","viability, T/C [21]","viability, T/C [22]","viability, T/C [23]","viability, T/C [26]","viability, T/C [27]","viability, T/C [28]",further results
Nc1ncn(C2CC(O)C(CO)S2)c(=O)n1 (configuration not stated) + NC1CCC(NC2CC2c2ccccc2)CC1,154 nM,146 nM,113 nM,74 nM,48.4 nM,88.6%,87.5%,62.1%,31.5%,98%,95.2%,58.4%,36%,91.6%,81.7%,54.4%,26.2%,90.6%,75.8%,43%,"viability, T/C [6]: 101%; viability, T/C [7]: 92.5%; viability, T/C [12]: 95.1%; viability, T/C [13]: 98.7%; viability, T/C [18]: 90.4%; viability, T/C [19]: 94.9%; viability, T/C [24]: 85.1%; viability, T/C [25]: 83.5%; viability, T/C [29]: 23.7%; viability, T/C [30]: 74.5%; viability, T/C [31]: 81.7%; viability, T/C [32]: 76.1%; viability, T/C [33]: 67.2%; viability, T/C [34]: 25.9%; viability, T/C [35]: 14.3%"
Nc1ncn(C2CC(O)C(CO)S2)c(=O)n1 (configuration not stated) + NC1CC1c1ccc(-c2cccc(O)c2)cc1,255 nM,254 nM,257 nM,236 nM,259 nM,115%,95.4%,74.7%,45.9%,116%,104%,81.9%,44.6%,119%,105%,81.8%,44.8%,125%,109%,78.7%,"viability, T/C [6]: 110%; viability, T/C [7]: 116%; viability, T/C [12]: 114%; viability, T/C [13]: 121%; viability, T/C [18]: 118%; viability, T/C [19]: 123%; viability, T/C [24]: 114%; viability, T/C [25]: 106%; viability, T/C [29]: 42.5%; viability, T/C [30]: 104%; viability, T/C [31]: 110%; viability, T/C [32]: 118%; viability, T/C [33]: 105%; viability, T/C [34]: 87.9%; viability, T/C [35]: 44.5%"
Nc1ccn(C2OC(CO)C(O)C2(F)F)c(=O)n1 (configuration not stated),,,,,,,,,,,,,,,,,,,,,"viability, T/C (compound 0.000949 µM): 22.8% and 20%; viability, T/C (compound 0.003 µM): 29.2% and 27.8%; viability, T/C (compound 0.00949 µM): 43.3% and 107%; viability, T/C (compound 0.03 µM): 36.6% and 35.1%; viability, T/C (compound 0.0949 µM): 37% and 34%; viability, T/C (compound 0.3 µM): 27.9% and 29.2%; IC50 (curve of compound): < 0.949 nM"
CCc1c2c(nc3ccc(O)cc13)-c1cc3c(c(=O)n1C2)COC(=O)[C@]3(O)CC + NC1CCC(NC2CC2c2ccccc2)CC1,< 0.949 nM,< 0.949 nM,< 0.949 nM,< 0.949 nM,< 0.949 nM,26.7%,3.44%,0.09%,0.11%,26.4%,3.19%,0.19%,0.12%,25.6%,3.37%,0.22%,0.47%,27.7%,1.91%,0.05%,"viability, T/C [6]: 44.1%; viability, T/C [7]: 34.7%; viability, T/C [12]: 46%; viability, T/C [13]: 33%; viability, T/C [18]: 47.1%; viability, T/C [19]: 37.2%; viability, T/C [24]: 44.5%; viability, T/C [25]: 34.5%; viability, T/C [29]: 0.11%; viability, T/C [30]: 42.5%; viability, T/C [31]: 31%; viability, T/C [32]: 26%; viability, T/C [33]: 4.35%; viability, T/C [34]: 0.12%; viability, T/C [35]: 0.17%"
O=C(C=Cc1cccc(S(=O)(=O)Nc2ccccc2)c1)NO + NC1CCC(NC2CC2c2ccccc2)CC1,266 nM,253 nM,250 nM,168 nM,131 nM,81.5%,82.3%,67.1%,43.2%,88%,87.1%,69.3%,41.2%,79.1%,78%,63.1%,46.8%,79.9%,72.7%,60.4%,"viability, T/C (second compound 0.1 µM, first compound 0.949 µM): 33.6%; viability, T/C (second compound 0.1 µM, first compound 3 µM): 12.9%; viability, T/C (second compound 0.316 µM, first compound 0.949 µM): 33.1%; viability, T/C (second compound 0.316 µM, first compound 3 µM): 11.7%; viability, T/C (second compound 1 µM, first compound 0.949 µM): 28.1%; viability, T/C (second compound 1 µM, first compound 3 µM): 10.4%; viability, T/C [29]: 38.8%; viability, T/C (second compound 3.16 µM, first compound 0.949 µM): 23.2%; viability, T/C (second compound 3.16 µM, first compound 3 µM): 8.14%; viability, T/C [32]: 70.4%; viability, T/C [33]: 64.6%; viability, T/C [34]: 56.5%; viability, T/C [35]: 36%; viability, T/C (second compound 10 µM, first compound 0.949 µM): 22.9%; viability, T/C (second compound 10 µM, first compound 3 µM): 7.67%"
